From patent US20250230193A1, “CYCLIC COMPOUND HAVING SELECTIVE KRAS INHIBITORY EFFECT ON HRAS AND NRAS” (CHUGAI SEIYAKU KABUSHIKI KAISHA, priority 2022, published 2025)
Where two headings read alike, the source gives them in different places. *1 amine or outer side, *2 acyl side, *3 side chain or, on linkers, in order; H or OH if unused. Where a SMILES comes first, the peptide text is derived from it. Bridges are numbered along the chain shown (N, C = ends). [ ]: non-standard residue; d: D form. The star is where a group is joined. hPhe(3,5-F2-4-CF3) = N[C@@H](CCc1cc(F)c(C(F)(F)F)c(F)c1)C(=O)O; hPhe(3-Cl-4-CF3) = N[C@@H](CCc1ccc(C(F)(F)F)c(Cl)c1)C(=O)O; NPrPhe(4-CF3) = CCCN[C@@H](Cc1ccc(C(F)(F)F)cc1)C(=O)O; X4 = CCCN([C@@H](COCCC(C)C)C(=O)[*:2])[*:1]; X1 = CN([C@@H](CCCC=[*:3])C(=O)[*:2])[*:1]; X2 = C[C@@](CC=[*:3])(N[*:1])C(=O)[*:2]; NMeGly(cPent) = CN[C@H](C(=O)O)C1CCCC1; Hyp = O=C(O)[C@@H]1C[C@@H](O)CN1; NMeD = CN[C@@H](CC(=O)O)C(=O)O; NMeL = CN[C@@H](CC(C)C)C(=O)O; Morpholide = C1CN(*)CCO1; NMeA = CN[C@@H](C)C(=O)O; Aze = O=C(O)[C@@H]1CCN1; Ac4c = NC1(C(=O)O)CCC1; Sar = CNCC(=O)O

What was measured:
[1] = target: GDP-bound KRAS wild-type protein (Homo sapiens, UniProt P01116); test: Binding to KRAS by surface plasmon resonance (SPR), Single Cycle Kinetics
[2] = target: GDP-bound HRAS wild-type protein (Homo sapiens, UniProt P01112); test: Binding to HRAS by surface plasmon resonance (SPR), Single Cycle Kinetics
[3] = target: GDP-bound NRAS wild-type protein (Homo sapiens, UniProt P01111); test: Binding to NRAS by surface plasmon resonance (SPR), Single Cycle Kinetics
[4] = tested on: human lung cancer strain NCI-H441
[5] = GDP-bound KRAS wild-type protein, SPR Single Cycle Kinetics, 1:1 binding model
[6] = SPR, Single Cycle Kinetics, GDP-bound KRAS wild-type protein
[7] = KD ratio, GDP-bound HRAS wild-type vs GDP-bound KRAS wild-type, SPR
[8] = KD ratio, GDP-bound NRAS wild-type vs GDP-bound KRAS wild-type, SPR
[9] = SPR Single Cycle Kinetics, GDP-bound KRAS wild-type protein, 1:1 binding model
[10] = SPR, GDP-bound wild-type proteins

Chain of GDP-bound NRAS wild-type protein (P01111 whole entry): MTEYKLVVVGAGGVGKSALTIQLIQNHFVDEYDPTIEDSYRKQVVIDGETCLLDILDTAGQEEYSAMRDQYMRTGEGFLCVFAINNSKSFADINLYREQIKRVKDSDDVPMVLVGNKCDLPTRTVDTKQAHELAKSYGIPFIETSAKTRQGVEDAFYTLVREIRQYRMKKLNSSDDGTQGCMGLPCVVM
Chain of GDP-bound HRAS wild-type protein (P01112 whole entry): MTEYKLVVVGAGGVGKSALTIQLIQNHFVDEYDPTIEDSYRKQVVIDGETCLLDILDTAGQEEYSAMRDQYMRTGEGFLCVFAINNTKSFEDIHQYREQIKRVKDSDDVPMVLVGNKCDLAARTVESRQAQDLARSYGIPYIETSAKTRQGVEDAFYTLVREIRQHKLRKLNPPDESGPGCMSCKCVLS

| SMILES | Kd [1, 5] [nM] | HRAS/KRAS (ratio of KD value with respect to GDP-bound HRAS wild-type protein to KD value with respect to KRAS) ([2]; SPR) | NRAS/KRAS (ratio of KD value with respect to GDP-bound NRAS wild-type protein to KD value with respect to KRAS) ([3]; SPR) | IC50 [4] [nM] | Kd [1, 6] [nM] | HRAS/KRAS (ratio of KD value with respect to HRAS to KD value with respect to KRAS) [2, 7] | NRAS/KRAS (ratio of KD value with respect to NRAS to KD value with respect to KRAS) [3, 8] | further results |
| --- | --- | --- | --- | --- | --- | --- | --- | --- |
| CC[C@H](C)[C@@H]1NC(=O)[C@H](CC(C)C)N(C)C(=O)C[C@@H](C(=O)N(C)C)N(C)C(=O)[C@H](C2CCCC2)N(C)C(=O)C2(CCCC2)NC(=O)C2CCCN2C(=O)[C@H](CCc2ccc(C(F)(F)F)c(Cl)c2)NC(=O)CN(C)C(=O)[C@H](Cc2ccc(C(F)(F)F)cc2)N2CC/C=C(/C)C[C@@H](C2=O)N(C)C(=O)CN(C)C1=O (some centres unmarked) [PP0617] | 6.9 | B (a compound having 3 or more and less than 10 is denoted as B) | B (a compound having 3 or more and less than 10 is denoted as B) | 159 | – | – | – | – |
| CC[C@H](C)C1NC(=O)[C@H](CC(C)C)N(C)C(=O)C[C@@H](C(=O)N(C)C)N(C)C(=O)[C@H](C2CCCC2)N(C)C(=O)C2(CCCC2)NC(=O)C2CCCN2C(=O)[C@@H](CCc2ccc(C(F)(F)F)c(Cl)c2)NC(=O)CN(C)C(=O)[C@@H](Cc2ccc(C(F)(F)F)cc2)N2CC/C=C\CCN(CC2=O)C(=O)CN(C)C1=O (some centres unmarked) [PP0619] | 3.7 | C (A compound having a KD ratio of 0.1 or more and less than 3 is denoted as C) | C (A compound having a KD ratio of 0.1 or more and less than 3 is denoted as C) | 70.7 | – | – | – | – |
| CC[C@H](C)[C@@H]1NC(=O)[C@H](CC(C)C)N(C)C(=O)C[C@@H](C(=O)N(C)C)N(C)C(=O)[C@H](C2CCCC2)N(C)C(=O)C2(CCCC2)NC(=O)[C@@H]2CCCN2C(=O)[C@H](CCc2ccc(C(F)(F)F)c(Cl)c2)NC(=O)CN(C)C(=O)[C@H](Cc2ccc(C(F)(F)F)cc2)N2CC=C(C)C[C@@H](C2=O)N(C)C(=O)CN(C)C1=O [PP0621] | 2.4 | C (A compound having a KD ratio of 0.1 or more and less than 3 is denoted as C) | C (A compound having a KD ratio of 0.1 or more and less than 3 is denoted as C) | 83.6 | – | – | – | – |
| CC[C@H](C)[C@@H]1NC(=O)[C@H](CC(C)C)N(C)C(=O)C[C@@H](C(=O)N(C)C)N(C)C(=O)[C@H](C2CCCC2)N(C)C(=O)C2(CCCC2)NC(=O)[C@@H]2CCCN2C(=O)[C@H](CCc2ccc(C(F)(F)F)c(Cl)c2)NC(=O)CN(C)C(=O)[C@H](Cc2ccc(C(F)(F)F)cc2)N2C/C=C\COC[C@@H](C2=O)N(C)C(=O)CN(C)C1=O [PP0626] | 7.1 | C (A compound having a KD ratio of 0.1 or more and less than 3 is denoted as C) | C (A compound having a KD ratio of 0.1 or more and less than 3 is denoted as C) | 158 | – | – | – | – |
| CCCN1C(=O)CN(C)C(=O)CN(C)C(=O)[C@H]([C@@H](C)CC)NC(=O)[C@@H]2CCC/C=C\C[C@](C)(NC(=O)[C@@H]3C[C@@H](OCC)CN3C(=O)[C@H](CCc3cc(F)c(C(F)(F)F)c(F)c3)NC(=O)CN(C)C(=O)[C@@H]1Cc1ccc(C(F)(F)F)cc1)C(=O)N(C)[C@@H](C1CCCC1)C(=O)N(C)[C@H](C(=O)N1CCOCC1)CC(=O)N2C [PP0901] ([X1]I[Sar][Sar][NPrPhe(4-CF3)][Sar][hPhe(3,5-F2-4-CF3)][Hyp](Et)[X2][NMeGly(cPent)][NMeD]-Morpholide; staple (Z) 1-9; lactam N-11) | – | – | – | 332 | 3 | B (a compound having 3 or more and less than 10 is denoted as B) | B (a compound having 3 or more and less than 10 is denoted as B) | – |
| CCO[C@@H]1C[C@H]2C(=O)NC3(CCC3)C(=O)N(C)[C@@H](C3CCCC3)C(=O)N(CC)[C@H](C(=O)N(C)C)CC(=O)N(C)[C@@H](CC)C(=O)N[C@@H]([C@@H](C)CC)C(=O)N(C)CC(=O)N(C)[C@H]3CCCCCN(C3=O)[C@@H](Cc3ccc(F)cc3)C(=O)N(C)CC(=O)N[C@@H](CCc3cc(F)c(C(F)(F)F)c(F)c3)C(=O)N2C1 [PP0904] | – | – | – | 58.7 | 0.8 | B (a compound having 3 or more and less than 10 is denoted as B) | B (a compound having 3 or more and less than 10 is denoted as B) | – |
| CCCN1C(=O)CN(C)C(=O)CN(C)C(=O)[C@H]([C@@H](C)CC)NC(=O)[C@@H]2CCCCCCC[C@@H](NC(=O)[C@@H]3C[C@@H](OCC)CN3C(=O)[C@H](CCc3cc(F)c(C(F)(F)F)c(F)c3)NC(=O)CN(C)C(=O)[C@@H]1Cc1ccc(C(F)(F)F)cc1)C(=O)N(C)[C@@H](C1CCCC1)C(=O)N(C)[C@H](C(=O)N(C)C)CC(=O)N2C [PP0925] | – | – | – | – | 1.1 | B (a compound having 3 or more and less than 10 is denoted as B) | A (a compound having 10 or more and less than 20 is denoted as A) | – |
| CCO[C@@H]1C[C@H]2C(=O)NC3(CCC3)C(=O)N(C)[C@@H](C3CCCC3)C(=O)N(C)[C@H](C(=O)N3CCOCC3)CC(=O)N(C)[C@@H](Cc3ccccc3)C(=O)N[C@@H]([C@@H](C)CC)C(=O)N(C)CC(=O)N(C)[C@H]3CCCCCN(C3=O)[C@@H](Cc3ccc(F)cc3)C(=O)N(C)CC(=O)N[C@@H](CCc3cc(F)c(C(F)(F)F)c(F)c3)C(=O)N2C1 [PP1181] | – | – | – | – | 0.19 | B (a compound having 3 or more and less than 10 is denoted as B) | B (a compound having 3 or more and less than 10 is denoted as B) | – |
| CCO[C@@H]1C[C@H]2C(=O)NC3(CCC3)C(=O)N(C)[C@@H](C3CCCC3)C(=O)N(C)[C@H](C(=O)N(C)C)CC(=O)N(C)[C@@H](CC3CCCC3)C(=O)N[C@@H]([C@@H](C)CC)C(=O)N(C)CC(=O)N(C)[C@H]3C/C=C\CCN(C3=O)[C@@H](Cc3ccc(C(F)(F)F)cc3)C(=O)N(C)CC(=O)N[C@@H](CCc3ccc(C(F)(F)F)c(OC)c3)C(=O)N2C1 [PP1248] | – | – | – | – | – | – | – | Kd [1]: 0.069 nM; IC50 ([4]; read-out: NCI-H441 IC50, NCI-H441 cells, 4 days, CellTiter-Glo): 7.3 nM |
| CCCN1C(=O)[C@@H]2CCN2C(=O)[C@H](C)N(C)C(=O)[C@H]([C@@H](C)CC)NC(=O)[C@H](CC(C)C)N(C)C(=O)C[C@@H](C(=O)N(C)C)N(C)C(=O)[C@H](C2CCCC2)N(C)C(=O)C2(CCC2)NC(=O)[C@@H]2CCCN2C(=O)[C@H](CCc2ccc(C(F)(F)F)c(Cl)c2)NC(=O)CN(C)C(=O)[C@@H]1COCCC(C)C [PP1820, (3S,9S,12S,17S,20S,23S,27S,30S,36S)-3-[2-[3-chloro-4-(trifluoromethyl)phenyl]ethyl]30-cyclopentyl-23-isobutyl-9-(isopentyloxymethyl)-N,N,7,17,18,24,28,31-octamethyl-20-[(1S)-1-methylpropyl]-2,5,8,11,16,19,22,25,29,32,35-undecaoxo-10-propyl-spiro[1,4,7,10,15,18,21,24,28,31,34-undecazatricyclo[34.3.0.012,15]nonatriacontane-33,1′-cyclobutane]-27-carboxamide] ([NMeL]I[NMeA][Aze][X4][Sar][hPhe(3-Cl-4-CF3)]P[Ac4c][NMeGly(cPent)][NMeD]-NMe2; lactam N-11) | – | – | – | – | – | – | – | Kd [1, 9]: 0.6 nM; HRAS/KRAS (ratio of KD value for HRAS to KD value for KRAS) [2, 7]: C (A compound having a KD ratio of 0.1 or more and less than 3 is denoted as C); NRAS/KRAS (ratio of KD value for NRAS to KD value for KRAS) [3, 8]: C (A compound having a KD ratio of 0.1 or more and less than 3 is denoted as C) |
| CCC[C@H]1C(=O)N[C@@H]([C@@H](C)CC)C(=O)N(C)CC(=O)N(C)[C@H]2C/C=C\CCN(C2=O)[C@@H](Cc2ccc(C(F)(F)F)cc2)C(=O)N(C)CC(=O)N[C@@H](CCc2cc(F)c(C(F)(F)F)c(F)c2)C(=O)N2C[C@H](OCC)C[C@H]2C(=O)NC2(CC(C)(C)C2)C(=O)N(C)[C@@H](CC(C)(C)C)C(=O)N(C)C(C(=O)N(C)C)CC(=O)N1C (some centres unmarked) [PP2730] | 0.065 | – | – | – | – | – | – | HRAS/KRAS (ratio of KD value with respect to GDP-bound HRAS wild-type protein to KD value with respect to KRAS) ([2]; class symbols): A (a compound having 10 or more and less than 20 is denoted as A); NRAS/KRAS (ratio of KD value with respect to GDP-bound NRAS wild-type protein to KD value with respect to KRAS) ([3]; class symbols): A (a compound having 10 or more and less than 20 is denoted as A) |
| CCC[C@H]1C(=O)N[C@@H]([C@@H](C)CC)C(=O)N(C2CC2)CC(=O)N(C)[C@H]2C/C=C\CCN(C2=O)[C@@H](Cc2ccc(C)cc2)C(=O)N(C)CC(=O)N[C@@H](CCc2cc(F)c(C(F)(F)F)c(F)c2)C(=O)N2C[C@H](OCC)C[C@H]2C(=O)N(C)C2(CCC2)C(=O)N(C)[C@@H](C2CCCC2)C(=O)N(C)[C@H](C(=O)N2CCCCC2)CC(=O)N1C [PP3111, (2S,8S,12R,14S,20S,23S,27S,30S,36S,38Z)-20-cyclopentyl-32-cyclopropyl-8-[2-[3,5-difluoro-4-(trifluoromethyl)phenyl]ethyl]-12-ethoxy-4,16,19,22,26,35-hexamethyl-30-[(1S)-1-methylpropyl]-23-(piperidine-1-carbonyl)-27-propyl-2-(p-tolylmethyl)spiro[1,4,7,10,16,19,22,26,29,32,35-undecazatricyclo[34.5.1.0^10,14]dotetracont-38-ene-17,1′-cyclobutane]-3,6,9,15,18,21,25,28,31,34,42-undecone] | – | – | – | – | – | – | – | Kd [1, 9]: 4.8 nM; HRAS/KRAS (ratio of KD value with respect to GDP-bound HRAS wild-type protein to KD value with respect to KRAS) [2, 10]: A (a compound having 10 or more and less than 20 is denoted as A); NRAS/KRAS (ratio of KD value with respect to GDP-bound NRAS wild-type protein to KD value with respect to KRAS) [3, 10]: A (a compound having 10 or more and less than 20 is denoted as A) |
